We go through two molecules from paper PMC5845896, “A Novel Bifunctional Amino Acid Racemase With Multiple Substrate Specificity, MalY From Lactobacillus sakei LT-13: Genome-Based Identification and Enzymological Characterization” (Frontiers in Microbiology, 2018).

Experiment [1] concerns the target T1, Ls-MalY (Lactobacillaceae, UniProt A0A223K4L6).
T1 construct: full length in pET-22b(+), C-terminal hexa-histidine tag, E. coli BL21(DE3), subunit ~46 kDa with tag, 281 kDa by gel filtration, homohexamer
T1 sequence (A0A223K4L6 1-391): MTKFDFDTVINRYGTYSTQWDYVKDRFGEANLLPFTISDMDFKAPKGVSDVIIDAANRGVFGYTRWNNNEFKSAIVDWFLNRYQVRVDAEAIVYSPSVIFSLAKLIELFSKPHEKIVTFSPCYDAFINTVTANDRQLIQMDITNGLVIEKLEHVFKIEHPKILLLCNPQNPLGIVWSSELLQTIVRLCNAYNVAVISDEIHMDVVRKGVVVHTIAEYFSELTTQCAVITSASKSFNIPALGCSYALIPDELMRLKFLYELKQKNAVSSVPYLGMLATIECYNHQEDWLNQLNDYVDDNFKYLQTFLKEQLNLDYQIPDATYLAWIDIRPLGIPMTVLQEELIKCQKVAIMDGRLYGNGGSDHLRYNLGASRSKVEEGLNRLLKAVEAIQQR
Description: UV-vis absorption spectrum ([…] nm peak), hydroxylamine treatment. In kind it is binding. The note with it: 20 mM potassium phosphate pH 7.5; as purified; covalent, K233.

Experiment [2] deals with T2, Ls-MalY (Lactobacillaceae, UniProt A0A223K4L6, Y123A).
T2 construct: full length in pET-22b(+), C-terminal hexa-histidine tag, E. coli BL21(DE3), subunit ~46 kDa with tag, 281 kDa by gel filtration, homohexamer
T2 sequence (A0A223K4L6 1-391 Y123A): T1 sequence (A0A223K4L6 1-391) with Y123A
Description: UV-vis absorption spectrum, hydroxylamine treatment. In kind it is binding. The note with it: 20 mM potassium phosphate pH 7.5; as purified.

Experiment [3] has as its target MalY from Lactobacillus sakei LT-13 (wild type) (Lactobacillus sakei LT-13). Description: SEC; Superdex 200 Increase 10/300 GL, 20 mM potassium phosphate pH 7.5 with 0.15 M KCl, 0.75 mL/min; molecular weight estimated against markers (thyroglobulin, apoferritin, β-amylase, BSA, carbonic anhydrase).

Changes are numbered by the printed parent chain.

For `Cc1ncc(COP(=O)(O)O)c(C=O)c1O` [PLP], in experiment [1], the “UV-vis absorption spectrum (420 nm peak), hydroxylamine treatment” value is listed as “the absorption peak was abolished by treatment with hydroxylamine (Figure 3A), suggesting that Ls-MalY bound PLP”. The “UV-vis absorption spectrum, hydroxylamine treatment” value in experiment [2] is recorded as “These spectral features suggest that the Y123A mutant bound PLP”.

A word on the stoichiometry N: it is the number of molecules, sites or subunits per partner or assembly. Consider “MalY from Lactobacillus sakei LT-13 (wild type) (enzyme)”, for which, in experiment [3], the stoichiometry N was 6.
